PMC10733463, “Berberine-microbiota interplay: orchestrating gut health through modulation of the gut microbiota and metabolic transformation into bioactive metabolites” (Frontiers in Pharmacology, 2023)
Like-named read-outs stand apart in the source and are kept apart here.

Assays:
[1] = rats, 2021, cited from earlier work; for Total recovery in feces: ref Ma et al., 2013, Feng et al.
[2] = tested on: B. coccoides (DSM 935); details: Blautia coccoides, 10 µg/mL, pH 6
[3] = tested on: Blautia luti (DSM 14534); details: DSM 14534, chicken, 10 µg/mL, pH 6
Protocol: (§1) Six strains were tested for their ability to convert berberine into berberine-demethylated metabolites. […] Strains were sub-cultured overnight in M2GSC medium pH 6. The next day, caecal content from a 3-week-old broiler chicken was sampled in anaerobic conditions and 1:1,000 diluted in M2GSC medium pH 6 containing 10 μg/mL berberine. Caecal mixtures were enriched with 1:100 diluted overnight cultures of single bacteria, or with M2GSC (control), and incubated in a 24-well plate, for 48 h. […] Samples were collected and processed as described before. Each bacterial strain was tested in triplicate at 37°C–40°C under anaerobic conditions.
(§2) The UPLC instrument consisted of an Acquity H-Class Quaternary Solvent Manager and an Acquity FTN Sample Manager (Waters, Berchem, Belgium). For chromatographic separation, an Acquity UPLC® HSS T3 column (1.8 µm, 100 mm × 2.1 mm i.d.) was used, protected by a precolumn of the same type (VanGuardTM, 5 mm × 2.1 mm i.d.), both from Waters. […] The column temperature was maintained at 25°C. The autosampler temperature was set at 10°C. The UPLC effluent was sent from 1.2 min to 9.5 min by use of a divert valve to a Xevo TQ-S® triple quadrupole mass spectrometer from Water, equipped with an ESI ion source operating in the positive ionization mode from. The UPLC-MS/MS analysis was run under control of MassLynx software (v4.1), which was used for subsequent data processing as well. For the injection of 1/5 diluted intestinal content samples (see section Preparation of intestinal content samples (ileum and caecum)), the divert valve was used in addition from 7.1 min to 8.4 min to deviate the high amount of berberine and associated IS berberine-d6 eluting in that time window from the UPLC column directly to the waste, rather than to the MS detector to avoid oversaturation of the instrument, influencing subsequent sample extract injections at well. Operating conditions for the ESI source used in the positive ionization mode were optimized by direct infusion of all individual components in combination with the mobile phase at 50% A/50% B delivered at a flow rate of 0.3 mL/min. The following tune parameters were used for detection of all components: capillary voltage, 3 kV, cone voltage, 10 V, source offset, 50 V, source temperature, 150°C, desolvation temperature, 500°C, desolvation gas flow, 800 L/h, cone gas flow, 150 L/h, collision gas flow, 0.2 mL/min, ion energy 1 and 2, 0.5, LM 1 and LM 2 resolution, 3, HM 1 and HM 2 resolution, 15. Components were detected in MS/MS mode using component specific MRM (Multiple Reaction Monitoring) transitions (Supplementary Table S1). Since a commercial standard of thalifendine was not available, MS/MS detection parameters and calibration of berberrubine were used for the detection and quantification of thalifendine, which is a reasonable approach, since both compounds are isomers. No commercial reference standards were available for phase II metabolites, therefore “calculated” MRM transitions were defined as follows: [M + -Gluc] > M+ for glucuronide forms and [M + -SO3] > M+ for sulfate forms, where the loss of glucuronic acid or sulfate corresponded to a mass shift of 176 Da or 80 Da respectively. Phase II metabolites were quantified relatively using the berberine calibration curve ([Wang et al., 2017a]; [Kwon et al., 2020]).

[4] = tested on: B. coccoides (DSM 935); details: DSM 935, chicken, 10 µg/mL, pH 6
Protocol: as §1, §2

[5] = tested on: Blautia hydrogenotrophica (DSM 10507); details: DSM 10507, chicken, 10 µg/mL, pH 6
Protocol: as §1, §2

[6] = tested on: Anaerostipes butyraticus (35–7); details: 35-7, chicken, 10 µg/mL, pH 6
Protocol: as §1, §2

[7] = tested on: Blautia hansenii (DSM 20583); details: DSM 20583, chicken, 10 µg/mL, pH 6
Protocol: as §1, §2

[8] = oral administration of berberine, ref Feng et al.

Compound | Total recovery in feces ([1]; oral berberine 48.2 mg/kg) | Total recovery in feces ([1]; oral berberine 200 mg/kg) | Log2(fold change) of metabolite response at 48 h, B. coccoides pure culture over berberine-medium [2] | Log2(fold change) of metabolite response at 48 h, culture with bacteria over control (berberine-medium + microbiota) [3] | Log2(fold change) of metabolite response at 48 h, culture with bacteria over control (berberine-medium + microbiota) [4] | Log2(fold change) of metabolite response at 48 h, culture with bacteria over control (berberine-medium + microbiota) [5] | Log2(fold change) of metabolite response at 48 h, culture with bacteria over control (berberine-medium + microbiota) [6] | Log2(fold change) of metabolite response at 48 h, culture with bacteria over control (berberine-medium + microbiota) [7] | Excretion in bile [1, 8] | Excretion in feces [1, 8] | Excretion in urine [1, 8]
COc1ccc2cc3[n+](cc2c1OC)CCc1cc2c(cc1-3)OCO2 [Berberine, Berberine chloride] | 8.4% | 19.05% |  |  |  |  |  |  |  |  | 
COc1ccc2cc3[n+](cc2c1O)CCc1cc2c(cc1-3)OCO2 [Berberrubine, berberrubine chloride] | 18.6% | 1.14% | 1.96 | -1.71 | -1.64 | -0.10 | 0.03 | -0.15 | 2.6% | 18.6% | 1.2%
COc1cc2c(cc1O)CC[n+]1cc3c(OC)c(OC)ccc3cc1-2 [Jatrorrhizine, Jatrorrhizine chloride] |  |  | -2.05 | -0.36 | -0.23 | 0.03 | -0.05 | -0.06 |  |  | 
